Values of other authors as cited in US20090318371A1 (priority 2006, published 2009).
Blank lines part the entries; values can stand above or below the molecule they belong to.

Tests used:
[1] = clinical studies
[2] = test system: human polymorphonuclear leukocyte chemotactic and chemokinetic responses; conditions: in vivo and in vitro
[3] = topical administration
[4] = Ames test
[5] = multiple topical administrations, equivalent to 10 mg/ml in water and isopropyl alcohol solution
[6] = Phase III clinical studies
[7] = topical application to mice for 21 months
[8] = Ames, chromosomal aberration and micronuclei
[9] = during the following 10 hours of topical administration
[10] = clinical phase I

Presence of Adapalene compared to Tretinoin on the dermis ([3]; dermis): −37%
Presence of Adapalene compared to Tretinoin on the epidermis ([3]; epidermis): +51%
Presence of Adapalene compared to Tretinoin in receptor fluid ([3]; receptor fluid): −71%
Structure (SMILES): COc1ccc(-c2ccc3cc(C(=O)O)ccc3c2)cc1C12CC3CC(CC(C3)C1)C2 [Adapalene]
Plasma levels [1]: no significant plasma levels were detected
Anti-inflammatory activity compared to other topical retinoids [2]: superior to other topical retinoids

Structure (SMILES): O=C(OOC(=O)c1ccccc1)c1ccccc1 [Benzoyl peroxide]
Activity against Propionibacterium acnes (Propionibacterium acnes): effective against Propionibacterium acnes
Mutagenicity [4]: not mutagenic

Share of the dosage recovered in urine as clindamycin [5]: less than 0.2%
Structure (SMILES): CCC[C@@H]1C[C@@H](C(=O)N[C@@H]([C@H]2O[C@H](SC)[C@H](OP(=O)(O)O)[C@@H](O)[C@H]2O)[C@H](C)Cl)N(C)C1 [clindamycin phosphate, Clindamycin phosphate]

Absorption, share of the dose absorbed [9]: Less than 6.0%
Structure (SMILES): CCOC(=O)c1ccc(C#Cc2ccc3c(c2)C(C)(C)CCS3)nc1 [Tazarotene]
Adverse effects reported [6]: burning sensation, skin scaling and dryness
Carcinogenic effects [7]: non-carcinogenic effects
Mutagenicity, clastogenic or chromosomal effects [8]: not mutagenic and has no clastogenic or chromosomal effects
Sensitization, phototoxicity or photoallergicity [10]: does not cause sensitization, phototoxicity or photoallergicity

Binding to plasma proteins (in vivo): Ninety percent or more
Share of administered clindamycin excreted intact in urine (urine): 10%
Structure (SMILES): CCC[C@@H]1C[C@@H](C(=O)N[C@@H]([C@H]2O[C@H](SC)[C@H](O)[C@@H](O)[C@H]2O)[C@H](C)Cl)N(C)C1 [Clindamycin]
